{"source": "patent US20030215817A1", "about": "“Modulation of gene expression in formation of fatty atherosclerotic lesions” (priority 2003, published 2003)", "key": {"[1]": {"tested_on": "LDL", "conditions": "Soma et al. 1998; cited from earlier work"}, "[2]": {"test": "preliminary kinetic studies: plasma levels after subcutaneous administration", "type": "in vivo", "conditions": "rabbit, sc, rabbits, after 7 days from the administration", "description": "The doses of lercanidipine used were determined from preliminary kinetic studies."}, "[3]": {"tested_on": "REC1_8 (MspI CCCG 243) mRNA", "test": "quantified RT-PCR, Rec1_8", "type": "in vivo, rabbit", "conditions": "for Relative Abundance Rec1_8, 20 pg F: hypercholesterolemic plus lercanidipine racemate, eight weeks, H2 (normocholesterolemic)=1.0", "description": "(§1) Nineteen of the isolated DST clones were further validated using RT-PCR analyses; the data are presented in FIGS. 6-24 and in Tables 5-23, below. For each DST examined, the optimal annealing temperature and reagent conditions were determined for the corresponding set of primers (see Table 25) based on results from a preliminary experiment. In eight separate reactions, each set of primers was assayed to find the optimal conditions by adjusting the following four parameters: primer concentration, dNTP concentration, MgCl2 concentration, and number of Taq polymerase units. Once optimal conditions were determined, each DST was run in duplicate multiple simultaneous reactions which usually included at least four dilutions of template (cDNA library), plus control reactions lacking template, and six sequential data points for numbers of cycles.\n(§2) Reactions were performed using “Hot Start” PCR with the Clontech TaqStart antibody system (Cat. #5400-1). Each reaction contained 1 ml of the cDNA library dilution as template, determined amounts of AmpliTaq DNA polymerase (cat. #N808-0156), MgCl2, dNTPs (GibcoBRL cat. #10297-018), primer, and Clontech TaqStart Antibody in a 20 ml final reaction volume using 10×Taq buffer II (without MgCl2). Typically, a master mix containing all components except the template was prepared and aliquoted. Various templates were then added to these master mix samples and 20 ml volumes were subsequently dispensed into individual reaction tubes. At various times during the PCR run, tubes were removed sequentially on a predetermined schedule in order to quantitate expression of the target DST over a “window” of cycle times. After amplification, the samples were quantified via fluorimetry.\n(§3) PCR was performed at annealing temperatures that were five degrees above the average melting temperature of each primer pair. For primers greater than 10 bases (in a 0.05M salt solution), melting temperature was calculated using the following formula: Tm=59.9+41[% GC]−[675/Primer Length], where %GC is the decimal value. Following determination of the average melting temperature of the primer pair, the annealing temperature was determined by adding five degrees to the average melting temperature. PCR was performed using the following program: 1) 95 degrees Celsius, 3 minutes; 2) 95 degrees Celsius, 30 seconds; 3) TM+5 degrees Celsius, 30 seconds; 4) 72 degrees Celsius, for a time dependent on target length at 16 bp/second; 5) repeat steps 2-4 33 more cycles; 6) 72 degrees Celsius, 3 minutes; 7) 14 degrees Celsius, forever.\n(§4) Following temperature cycling, 2 ml of the PCR reaction was added to 140 ml of a 1:280 dilution of PicoGreen (Molecular Probes cat. #P-11495 (10×100 ml)) in TE pH 7.5 in a 96-well Costar UV microtiter plate (Fisher cat. #07-200623). The samples were mixed gently for 1.5 minutes and allowed to equilibrate at room temperature in the dark for 15 minutes. The concentration of the PCR products was quantified by fluorimetry using a PerSeptive Biosystems CytoFluor series 4000 multi-well plate reader.\n(§5) Background fluorescence was determined by using duplicate control samples that were cycled with all reaction components except the template. The mean value from these duplicate background control samples was subtracted from the corresponding experimental values prior to analyzing results. The sensitivity of the PicoGreen dsDNA assay is reported to be 250 pg/ml (50 pg dsDNA in a […] assay volume) using a fluorescence microplate reader such as was used in these measurements. […]"}, "[4]": {"tested_on": "REC1_17 (TCGT 199) mRNA", "test": "quantified RT-PCR, Rec1_17", "type": "in vivo, rabbit", "conditions": "for Relative Abundance Rec1_17, 20 pg F: hypercholesterolemic plus lercanidipine racemate, eight weeks, H2 (normocholesterolemic)=1.0", "description": "as §1, §2, §3, §4, §5"}, "[5]": {"tested_on": "REC1_13 (MspI GCCC 216) mRNA", "test": "quantified RT-PCR, Rec1_13", "type": "in vivo, rabbit", "conditions": "for Relative Abundance Rec1_13, 100 pg F: hypercholesterolemic plus lercanidipine racemate, eight weeks, H2 (normocholesterolemic)=1.0", "description": "as §1, §2, §3, §4, §5"}, "[6]": {"tested_on": "smooth muscle cell", "conditions": "in vitro (Corsini et al. 1996); cited from earlier work"}, "[7]": {"tested_on": "Rec1_12 (GCCC 232) mRNA", "test": "quantified RT-PCR, Rec1_12", "type": "in vivo, rabbit", "conditions": "for Relative Abundance Rec1_12, 20 pg F: hypercholesterolemic plus lercanidipine racemate, eight weeks, H2 (normocholesterolemic)=1.0", "description": "as §1, §2, §3, §4, §5"}, "[8]": {"conditions": "in vivo studies (Soma 1998); cited from earlier work"}, "[9]": {"tested_on": "Rec1_1 (MspI AAGC 288) mRNA", "test": "quantified RT-PCR, Rec1_1", "type": "in vivo, rabbit", "conditions": "for Relative Abundance Rec1_1, 20 pg F: hypercholesterolemic plus lercanidipine racemate, eight weeks, H2 (normocholesterolemic)=1.0", "description": "as §1, §2, §3, §4\nBackground fluorescence was determined by using duplicate control samples that were cycled with all reaction components except the template. The mean value from these duplicate background control samples was subtracted from the corresponding experimental values prior to analyzing results. The sensitivity of the PicoGreen dsDNA assay is reported to be 250 pg/ml (50 pg dsDNA in a […] assay volume) using a fluorescence microplate reader such as was used in these measurements.\nDST clone Rec1—1 was one of the clones further evaluated by RT-PCR. The TOGA analysis of clone Rec1—1, identified as MspI AAGC 288, is discussed above and illustrated in FIGS. 1 and 2. The results of the quantified RT-PCR for Rec1—1 are shown in FIG. 6 and in Table 5 (normalized to the normocholesterolemic control value (“H2”) at each time point). […]"}, "[10]": {"conditions": "hypercholesterolemic animals receiving lercanidipine racemate"}, "[11]": {"conditions": "hypercholesterolemic animals receiving lercanidipine"}}, "note": "Where a name gives a salt, the structure may show the parent alone."}
{"smiles": "COC(=O)C1=C(C)NC(C)=C(C(=O)OC(C)(C)CN(C)CCC(c2ccccc2)c2ccccc2)C1c1cccc([N+](=O)[O-])c1", "note": "(racemic) [lercanidipine, lercanidipine hydrochloride]", "values": [{"measurement": "antioxidant for LDL in endothelial cell-mediated oxidation", "setting": "[1]", "value": "act as an antioxidant"}, {"measurement": "concentration at 7 days", "setting": "[2]; subcutaneous administration of 1 mg/kg", "value": 500, "unit": "ng/g"}, {"measurement": "concentration at 7 days", "setting": "[2]; subcutaneous administration of 3 mg/kg", "value": 3200, "unit": "ng/g"}, {"measurement": "Relative Abundance Rec1_8, 20 pg F", "setting": "[3]; cycle 26", "value": 4.6}, {"measurement": "Relative Abundance Rec1_8, 20 pg F", "setting": "[3]; cycle 28", "value": 2.2}, {"measurement": "Relative Abundance Rec1_8, 20 pg F", "setting": "[3]; cycle 30", "value": 3.5}, {"measurement": "Relative Abundance Rec1_8, 20 pg F", "setting": "[3]; cycle 32", "value": 4.8}, {"measurement": "Relative Abundance Rec1_8, 20 pg F", "setting": "[3]; cycle 34", "value": 2.1}, {"measurement": "Relative Abundance Rec1_8, 20 pg F", "setting": "[3]; cycle 36", "value": 2.1}, {"measurement": "expression of Rec1_8 at 8 weeks (RT-PCR study), in words", "setting": "[3]; [10]", "value": "elevated"}, {"measurement": "Relative Abundance Rec1_17, 20 pg F", "setting": "[4]; cycle 24", "value": 0.01}, {"measurement": "Relative Abundance Rec1_17, 20 pg F", "setting": "[4]; cycle 26", "value": 0.00}, {"measurement": "Relative Abundance Rec1_17, 20 pg F", "setting": "[4]; cycle 28", "value": 0.09}, {"measurement": "Relative Abundance Rec1_17, 20 pg F", "setting": "[4]; cycle 30", "value": 0.08}, {"measurement": "Relative Abundance Rec1_17, 20 pg F", "setting": "[4]; cycle 32", "value": 0.21}, {"measurement": "Relative Abundance Rec1_17, 20 pg F", "setting": "[4]; cycle 34", "value": 0.43}, {"measurement": "expression of Rec1_17 at 8 weeks (RT-PCR study), in words", "setting": "[4]; [11]", "value": "decreased"}, {"measurement": "Relative Abundance Rec1_13, 100 pg F", "setting": "[5]; cycle 20", "value": 1.4}, {"measurement": "Relative Abundance Rec1_13, 100 pg F", "setting": "[5]; cycle 22", "value": 33.7}, {"measurement": "Relative Abundance Rec1_13, 100 pg F", "setting": "[5]; cycle 24", "value": 3.0}, {"measurement": "Relative Abundance Rec1_13, 100 pg F", "setting": "[5]; cycle 26", "value": 1.9}, {"measurement": "Relative Abundance Rec1_13, 100 pg F", "setting": "[5]; cycle 28", "value": 1.2}, {"measurement": "Relative Abundance Rec1_13, 100 pg F", "setting": "[5]; cycle 30", "value": 1.3}, {"measurement": "expression of Rec1_13 at 8 weeks (RT-PCR study), in words", "setting": "[5]; [10]", "value": "elevated"}, {"measurement": "smooth muscle cell migration and proliferation", "setting": "[6]", "value": "effectively reduce"}, {"measurement": "Relative Abundance Rec1_12, 20 pg F", "setting": "[7]; cycle 26", "value": 0.1}, {"measurement": "Relative Abundance Rec1_12, 20 pg F", "setting": "[7]; cycle 28", "value": 0.0}, {"measurement": "Relative Abundance Rec1_12, 20 pg F", "setting": "[7]; cycle 30", "value": 0.4}, {"measurement": "Relative Abundance Rec1_12, 20 pg F", "setting": "[7]; cycle 32", "value": 0.6}, {"measurement": "Relative Abundance Rec1_12, 20 pg F", "setting": "[7]; cycle 34", "value": 0.6}, {"measurement": "Relative Abundance Rec1_12, 20 pg F", "setting": "[7]; cycle 36", "value": 0.6}, {"measurement": "expression of Rec1_12 at 8 weeks (RT-PCR study), in words", "setting": "[7]; [11]", "value": "decreased"}, {"measurement": "carotid intimal hyperplasia", "setting": "[8]", "value": "inhibit"}, {"measurement": "Relative Abundance Rec1_1, 20 pg F", "setting": "[9]; cycle 26", "value": 7.7}, {"measurement": "Relative Abundance Rec1_1, 20 pg F", "setting": "[9]; cycle 28", "value": 4.9}, {"measurement": "Relative Abundance Rec1_1, 20 pg F", "setting": "[9]; cycle 30", "value": 3.2}, {"measurement": "Relative Abundance Rec1_1, 20 pg F", "setting": "[9]; cycle 32", "value": 2.1}, {"measurement": "Relative Abundance Rec1_1, 20 pg F", "setting": "[9]; cycle 34", "value": 1.5}, {"measurement": "expression of Rec1_1 at 8 weeks (RT-PCR study), in words", "setting": "[9]; [10]", "value": "elevated"}]}
